Experimental data taken from patent US20230041065A1, “METHODS FOR GENERATING HEMATOPOIETIC STEM CELLS” (The Brigham and Women`s Hospital, Inc., priority 2019, published 2023).
Where no end group is shown, it is not given here.

Columns and labels:
[1] = test system: zebrafish embryos; experiment: HSPC marker expression in zebrafish embryos (whole mount in situ hybridization); assay type: in vivo
Experimental: (§1) Zebrafish embryos were treated with the following chemical modulators in E3 fish media: 100 uM L-NAME (Fisher Scientific), 50 uM Digitoxigenin (Sigma), 25-50 uM Yoda1 (Cayman Chemical), 1 uM Nanaomycin (Nana; Fisher Scientific), 100 uM Gadolinium chloride (GdCl3; Sigma), 5-10 uM 4α-phorbol 12, 13-didecanaote (4Apdd; Sigma), or GSK205 (10 uM).
Whole mount in situ hybridizations was performed as previously described.

[2] = test system: E11.5 AGM cells; experiment: Hematopoietic CFU and FACS assays on E11.5 AGM cells; assay type: cell-based, mouse; settings: for GEMM formation: 50 μM
Experimental: Pulsating blood vessels like conditions were stimulated in vitro using Flexcell FX-4000 machine. To analyze roles of pharmacological targets in regulating the endothelial-to-HSC transition, mouse embryo-derived AGM or whole mouse embryo were exposed ex vivo with biomechanical stretching, chemicals, or drugs. Next, hematopoietic colony formation assays were performed by incubating mouse AGM-derived cells in StemCell M3434 media for seven days. Serial transplantation of AGM-derived HSCs in lethally irradiated SJL mice were performed. The stem cell frequency upon biomechanical stretching was analyzed using a limiting dilution assay. To characterize properties of AGM-HSC-derived blood cells in primary transplants, percentage chimerism and reconstitution was measured using FACS, globin transcripts were analyzed using quantitative reverse transcriptase-PCR, myeloperoxidase amount was measured using PicoKine ELISA kit, TCR-β rearrangement was analyzed using PCR for TCR-β locus, pre-immune IG detection was analyzed using Thermo-Fisher Mouse Ig Isotyping kit, and delayed-type hypersensitivity was analyzed by injecting sheep RBC (Rockland Immunochemicals) in the footpad of pre-sensitized mice. E11.5 AGM were harvested from C57BL6/J Cd45.2 mouse embryos, and a single cell suspension of a three-embryo equivalent of cells was seeded on each well of a BioFlex six-well culture plate ([…]). We cultured cells overnight with the application of cyclic strain (Flexcell® FX4000TM Tension System) and/or treatment with chemical modulators (2-100 μM Yoda1, 1 μM Nanaomycin, 100 μM Gdcl3, 1 uM GsMT×4, 5-20 μM 4αPDD, 10 uM GSK205). Next, harvested cells were used to perform transplant, fluorescence-activated cell sorting (FACS) analysis, and colony-forming unit (CFU) assays. For CFU assays, cells from AGM explant or ex vivo were plated in MethoCult GF M3434 media (StemCell Technologies). Seven days after seeding, we analyzed their capacity to make granulocyte, erythroid, macrophage, megakaryocyte (GEMM), granulocyte macrophage (GM), granulocyte (G), macrophage (M), and erythroid (E) colonies.

[3] = test system: cd41:eGFP+ HSCs emerging from flk1:mCherry+ endothelial cells; experiment: Time-lapse confocal imaging of cd41:eGFP+ HSCs emerging from flk1:mCherry+ endothelial cells in transgenic embryos; assay type: in vivo, zebrafish; settings: embryos concurrently treated with or without Yoda1
Experimental: Mice were purchased Cd45.2 (C57BL6/J) and Cd45.1 (SJL) from The Jackson Laboratory and zebrafish morpholinos from GeneTools. Microangiography was performed by injecting fluorescent-labeled dextran dye in the atrium of zebrafish heart and its passage was recorded using live imaging. Immunostaining of zebrafish heart and mouse AGM were analyzed using an inverted fluorescent microscope. Cardiac tamponade, heart rate, and pulse frequency were analyzed in zebrafish embryos using bright field imaging or time-lapse confocal microscopy. The movement of red blood cells in blood vessels was analyzed as well as the endothelial-to-HSC transition in zebrafish transgenic embryos using time-lapse confocal imaging.
as §1
cd41:eGFP were crossed with flk1:mCherry zebrafish and flk1:mCherry with lcr:eGFP zebrafish and injected morpholino in their transgenic embryos. […] The relative movement of lcr:eGFP^+ red blood cells was analyzed in the context of flk1:mCherry^+ endothelium. We performed image analysis using Imaris (Bitplane) software.

[Cl][Gd]([Cl])[Cl] [GdCl3, Gadolinium chloride]
HSPC expression ([1]; zebrafish embryos): attenuated HSPC expression in zebrafish embryos to the level of sih-MO embryos
formation of multipotent hematopoietic progenitors potentiated by 10% cyclic strain ([2]; 10% cyclic strain plus stretch-activated receptor inhibitor): attenuated

Cc1oc(-c2ccccc2)cc1C(=O)O [Jedi1]
GEMM formation [2]: enhances GEMM formation

Cc1oc(-c2cccs2)cc1C(=O)O [Jedi2]
GEMM formation [2]: enhances GEMM formation

COC(=O)[C@@H](N)CCCNC(=N)N[N+](=O)[O-] [L-NAME]
HSPC formation ([1]; cdh5-MO embryos): does not impact HSPC formation in cdh5-MO embryos
HSPC formation ([1]; control embryos): attenuates HSPC formation in control embryos

CC1OC(CC(=O)O)CC2=C1C(=O)c1c(O)cccc1C2=O (centres unmarked) [Nanaomycin]
HSPC marker expression ([1]; control and cdh5-MO embryos): attenuated HSPC marker expression in control and cdh5-MO embryos
Piezo1 activation (Yoda1)-mediated increase in HSC formation [3]: attenuated the Piezo1 activation-mediated increase in HSC formation
hematopoietic colony formation stimulated by cyclic strain or Yoda1 ([2]; cyclic strain or Yoda1 in the presence of Nanaomycin): attenuates the endothelial-to-HSC transition stimulated by circumferential stretch or Piezo1 activation
phenotype of hematopoietic cells after treatment ([2]; stretch- or Piezo1 activation-treated AGM cells): reverts hematopoietic cells into phenotypic endothelial cells

GsMtX4: pharmacological inhibition of Piezo1 (GCLEFWWKCNPNDDKCCRPKLKCSKLFKLCNFSF; ends and bridges not checked; cysteine pairing not given here; UniProt Q7YT39 47-80, looked up)
hematopoietic colony formation induced by cyclic strain ([2]; cyclic strain plus Piezo1 inhibitor): attenuates the inductive impact of cyclic strain on the endothelial-to-HSC transition
